Laboratory results: PubChem BioAssay AID1259407 (Chemical Carcinogenesis Research Information System (CCRIS), 2018)
Active and inactive are the calls of the source. The rule behind the calls is not given here.

System: CCRIS mutagenicity, Ames/micronucleus/aberration tests
Assay: CCRIS mutagenicity studies
[1] = Test System: MOUSE LYMPHOMA, Strain/Indicator: L5178Y (TK+/TK-), Metabolic Activation: NONE, Method: SUSPENSION/PLATE
[2] = Test System: MOUSE LYMPHOMA, Strain/Indicator: L5178Y (TK+/TK-), Metabolic Activation: RAT, LIVER, S-9, AROCLOR 1254, Method: SUSPENSION/PLATE
[3] = Test System: AMES SALMONELLA TYPHIMURIUM, Strain/Indicator: TA98, Metabolic Activation: NONE, Method: STANDARD PLATE
[4] = Test System: AMES SALMONELLA TYPHIMURIUM, Strain/Indicator: TA98, Metabolic Activation: RAT, LIVER, S-9, AROCLOR 1254, Method: STANDARD PLATE
[5] = Test System: AMES SALMONELLA TYPHIMURIUM, Strain/Indicator: TA100, Metabolic Activation: NONE, Method: STANDARD PLATE
[6] = Test System: AMES SALMONELLA TYPHIMURIUM, Strain/Indicator: TA100, Metabolic Activation: RAT, LIVER, S-9, AROCLOR 1254, Method: STANDARD PLATE
[7] = Test System: AMES SALMONELLA TYPHIMURIUM, Strain/Indicator: TA1535, Metabolic Activation: NONE, Method: STANDARD PLATE
[8] = Test System: AMES SALMONELLA TYPHIMURIUM, Strain/Indicator: TA1535, Metabolic Activation: RAT, LIVER, S-9, AROCLOR 1254, Method: STANDARD PLATE

With `CCCCOC(=O)c1ccccc1C(=O)OCc1ccccc1` the mutagenic call (End Point: IN VITRO CHROMOSOMAL ABERRATIONS, Test System: CHINESE HAMSTER OVARY CELLS, Metabolic Activation: NONE) was “inactive; negative”, the mutagenic call (End Point: IN VITRO CHROMOSOMAL ABERRATIONS, Test System: CHINESE HAMSTER OVARY CELLS, Metabolic Activation: RAT, LIVER, S-9, AROCLOR 1254) was “inactive; negative” and the mutagenic call (Test System: AMES SALMONELLA TYPHIMURIUM, Strain/Indicator: TA98, Metabolic Activation: HAMSTER, LIVER, S-9, AROCLOR 1254 (10%), Method: PREINCUBATION) was “inactive; negative”. The mutagenic call (Test System: AMES SALMONELLA TYPHIMURIUM, Strain/Indicator: TA98, Metabolic Activation: NONE, Method: PREINCUBATION) was “inactive; negative”, the mutagenic call (Test System: AMES SALMONELLA TYPHIMURIUM, Strain/Indicator: TA98, Metabolic Activation: RAT, LIVER, S-9, AROCLOR 1254 (10%), Method: PREINCUBATION) was “inactive; negative” and the mutagenic call (Test System: AMES SALMONELLA TYPHIMURIUM, Strain/Indicator: TA100, Metabolic Activation: HAMSTER, LIVER, S-9, AROCLOR 1254 (10%), Method: PREINCUBATION) was “inactive; negative”. The mutagenic call (Test System: AMES SALMONELLA TYPHIMURIUM, Strain/Indicator: TA100, Metabolic Activation: NONE, Method: PREINCUBATION) was “inactive; negative”, the mutagenic call (Test System: AMES SALMONELLA TYPHIMURIUM, Strain/Indicator: TA100, Metabolic Activation: RAT, LIVER, S-9, AROCLOR 1254 (10%), Method: PREINCUBATION) was “inactive; negative” and the mutagenic call (Test System: AMES SALMONELLA TYPHIMURIUM, Strain/Indicator: TA1535, Metabolic Activation: HAMSTER, LIVER, S-9, AROCLOR 1254 (10%), Method: PREINCUBATION) was “inactive; negative”. For the same compound, the mutagenic call (Test System: AMES SALMONELLA TYPHIMURIUM, Strain/Indicator: TA1535, Metabolic Activation: NONE, Method: PREINCUBATION) was “inactive; negative”, the mutagenic call (Test System: AMES SALMONELLA TYPHIMURIUM, Strain/Indicator: TA1535, Metabolic Activation: RAT, LIVER, S-9, AROCLOR 1254 (10%), Method: PREINCUBATION) was “inactive; negative” and the mutagenic call (Test System: AMES SALMONELLA TYPHIMURIUM, Strain/Indicator: TA1537, Metabolic Activation: HAMSTER, LIVER, S-9, AROCLOR 1254 (10%), Method: PREINCUBATION) was “inactive; negative”. For the same compound, the mutagenic call (Test System: AMES SALMONELLA TYPHIMURIUM, Strain/Indicator: TA1537, Metabolic Activation: NONE, Method: PREINCUBATION) was “inactive; negative”, the mutagenic call (Test System: AMES SALMONELLA TYPHIMURIUM, Strain/Indicator: TA1537, Metabolic Activation: RAT, LIVER, S-9, AROCLOR 1254 (10%), Method: PREINCUBATION) was “inactive; negative” and the mutagenic call [1] was “inactive; negative”. The mutagenic call (Test System: MOUSE LYMPHOMA, Strain/Indicator: L5178Y (TK+/TK-), Metabolic Activation: RAT LIVER S-9, Method: SUSPENSION/PLATE) was “active; positive” and the mutagenic call [2] was “inactive; negative”.
`O=C([O-])[C@H](O)[C@@H](O)[C@H](O)[C@H](O)CO.O=C([O-])[C@H](O)[C@@H](O)[C@H](O)[C@H](O)CO.[Cu+2]` was tested, and the mutagenic call (Test System: AMES SALMONELLA TYPHIMURIUM, Strain/Indicator: TA97, Metabolic Activation: NONE, Method: PREINCUBATION) was “inactive; negative”, the mutagenic call (Test System: AMES SALMONELLA TYPHIMURIUM, Strain/Indicator: TA97, Metabolic Activation: S-9, Method: PREINCUBATION) was “inactive; negative” and the mutagenic call (Test System: AMES SALMONELLA TYPHIMURIUM, Strain/Indicator: TA102, Metabolic Activation: NONE, Method: PREINCUBATION) was “inactive; negative”. The mutagenic call (Test System: AMES SALMONELLA TYPHIMURIUM, Strain/Indicator: TA102, Metabolic Activation: S-9, Method: PREINCUBATION) was “inactive; negative”.
With `O=[N+]([O-])c1ccc2c3c4c(cccc4c4ccccc4c13)[C@H](O)[C@H]2O` the mutagenic call (Test System: AMES SALMONELLA TYPHIMURIUM, Strain/Indicator: TA98(1,8-DNP6), Metabolic Activation: NONE, Method: STANDARD PLATE) was “active; positive”, the mutagenic call (Test System: AMES SALMONELLA TYPHIMURIUM, Strain/Indicator: TA98(1,8-DNP6), Metabolic Activation: RAT, LIVER, S-9, AROCLOR 1254, Method: STANDARD PLATE) was “active; positive” and the mutagenic call (Test System: AMES SALMONELLA TYPHIMURIUM, Strain/Indicator: TA98(NR), Metabolic Activation: NONE, Method: STANDARD PLATE) was “active; positive”. For the same compound, the mutagenic call (Test System: AMES SALMONELLA TYPHIMURIUM, Strain/Indicator: TA98(NR), Metabolic Activation: RAT, LIVER, S-9, AROCLOR 1254, Method: STANDARD PLATE) was “active; positive”, the mutagenic call [3] was “active; positive” and the mutagenic call [4] was “active; positive”.
For `O=c1c(Cl)c(Cl)cnn1S(=O)(=O)c1ccc(Cl)cc1Cl`, the mutagenic call [3] was “inactive; negative”, the mutagenic call [4] was “inactive; negative” and the mutagenic call [5] was “inactive; negative”. For the same compound, the mutagenic call [6] was “inactive; negative”, the mutagenic call [7] was “inactive; negative” and the mutagenic call [8] was “inactive; negative”. For the same compound, the mutagenic call (Test System: AMES SALMONELLA TYPHIMURIUM, Strain/Indicator: TA1537, Metabolic Activation: NONE, Method: STANDARD PLATE) was “inactive; negative” and the mutagenic call (Test System: AMES SALMONELLA TYPHIMURIUM, Strain/Indicator: TA1537, Metabolic Activation: RAT, LIVER, S-9, AROCLOR 1254, Method: STANDARD PLATE) was “inactive; negative”.
For `OC[C@H]1O[C@@H](n2cnc3c(NC[C@H](O)COc4cccc5ccccc45)ncnc32)[C@H](O)[C@@H]1O`, the mutagenic call (Test System: AMES SALMONELLA TYPHIMURIUM, Strain/Indicator: TA97, Metabolic Activation: NONE, Method: STANDARD PLATE) was “inactive; negative”, the mutagenic call (Test System: AMES SALMONELLA TYPHIMURIUM, Strain/Indicator: TA97, Metabolic Activation: RAT, LIVER, S-9, AROCLOR 1254, Method: STANDARD PLATE) was “inactive; negative” and the mutagenic call [3] was “inactive; negative”. The mutagenic call [4] was “inactive; negative”, the mutagenic call [5] was “inactive; negative” and the mutagenic call [6] was “inactive; negative”. For the same compound, the mutagenic call [7] was “inactive; negative”, the mutagenic call [8] was “inactive; negative” and the mutagenic call (Test System: AMES SALMONELLA TYPHIMURIUM, Strain/Indicator: TA1538, Metabolic Activation: NONE, Method: STANDARD PLATE) was “inactive; negative”. The mutagenic call (Test System: AMES SALMONELLA TYPHIMURIUM, Strain/Indicator: TA1538, Metabolic Activation: RAT, LIVER, S-9, AROCLOR 1254, Method: STANDARD PLATE) was “inactive; negative”, the mutagenic call (Test System: CHINESE HAMSTER OVARY, Strain/Indicator: CHO-KL-BH4 (HGPRT), Metabolic Activation: NONE) was “inactive; negative” and the mutagenic call (Test System: CHINESE HAMSTER OVARY, Strain/Indicator: CHO-KL-BH4 (HGPRT), Metabolic Activation: RAT, LIVER, S-9, AROCLOR 1254) was “inactive; negative”. The mutagenic call [1] was “inactive; negative” and the mutagenic call [2] was “active; positive”.
